We go through 10 molecules from patent US20250326769A1, “HETEROAROMATIC MACROCYCLIC ETHER CHEMOTHERAPEUTIC AGENTS” (Nuvalent, Inc., priority 2022, published 2025).

One test concerns the target TRKB-wt (Homo sapiens (Human), UniProt Q16620). The test is described as follows: Biochemical kinase assay, TRKB-wt. As to conditions: apparent inhibitory constant, kinase domain, Morrison equation; read-out: TRKB-wt Ki^app. The protocol: (§1) First, 250 nL of compound dissolved in DMSO (100-fold of the desired concentration) was dispensed into a 384-well plate. A 12.5 μL substrate solution containing ATP (2 mM) and fluorogenic phosphorylation substrate AQT0101 ([…] for ALK and ROS, AssayQuant) or AQT0104 (26 μM for TRKB, AssayQuant) in buffer (50 mM HEPES pH 7.5, […], 0.5 mM EGTA, 10 mM MgCl2) was added and mixed thoroughly. Then, a 12.5 μL kinase solution containing ALK (1.5 nM, Carna, 08-518), ALK I1171N/D1203N (4 nM, SignalChem, custom-made), ROS1 (0.6 nM, Carma, 08-163), ROS1-G2032R (0.5 nM, SignalChem, R14-121BG), or TRKB-wt (1.5 nM, SignalChem, N17-11G) kinase domains in buffer ([…] pH 7.5, 0.01% Brij-[…], 0.4 mg/mL BSA, 0.5 mM EGTA, and 10 mM MgCl2) was added and mixed thoroughly. The plate was sealed and read by SpectraMax Paradigm at λ=485 nm every 2 minutes for 120 minutes at 30° C. Initial rates of reaction (v) were calculated from the change in fluorescence intensity over time during the initial, linear portion of the reaction. Finally, apparent inhibitory constants (Ki^app) were determined from regression of v and I (inhibitor concentration) to Morrison Equation (E=enzyme concentration): […]
(§2) Compound potency can be interpreted by binning Ki^app values against the targets: bin A for high potency, Ki^app<50 nM; bin B for medium potency, 50 nM≤Ki^app<500 nM; and bin C for low potency, Ki^app≥500 nM. […] “nd” means not determined.

The target of test [1] is Ba/F3 EML4-ALK v1 I1171N/D1203N (Homo sapiens (Human), UniProt Q9HC35+Q9UM73, D1203N/I1171N). The test is described as follows: Ba/F3 cell proliferation assay, EML4-ALK v1 I1171N/D1203N. It is filed as cell-based. To be noted: for IC50: Ba/F3 stable cells, 72 hours, CellTiter-Glo; for ETV6-TRKB / EML4-ALK v1 I1171N/D1203N / Selectivity for Ba/F3 EML4-ALK v1 I1171N-D1203N IC50 over Ba/F3 ETV6-TRKB IC50: TRKB selectivity, ratio of Ba/F3 IC50 values; for Selectivity for Ba/F3 EML4-ALK v1 I1171N-D1203N IC50 over Ba/F3 ETV6-TRKB IC50: Table 6 bins. In short, it runs like this: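 Ba/F3 cells made IL-3-independent by retroviral EML4-ALK v1 I1171N/D1203N and selected with puromycin, then treated with 3-fold compound dilutions for 72 h. Viability by CellTiter-Glo luminescence; IC50 from four-parameter logistic fit.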
For orientation: Cellular ATP, detected with luciferase, serves as a proxy for viable cell number.

The target in another test is Ba/F3 ETV6-TRKB (Homo sapiens, UniProt Q16620). The test is described as follows: Ba/F3 cell proliferation assay, ETV6-TRKB. It is filed as cell-based. To be noted: Ba/F3 stable cells, 72 hours, CellTiter-Glo; read-out: ETV6-TRKB IC50. In short, it runs like this:
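Ba/F3 cells retrovirally transduced with ETV6-TRKB and selected for IL-3-independent growth with puromycin were treated with 3-fold compound dilutions for 72 h. Viability read by CellTiter-Glo luminescence; IC50 from percent inhibition by four-parameter logistic fit.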

In a further test the target is ALK I1171N/D1203N (Homo sapiens (Human), UniProt Q9UM73, D1203N/I1171N). Put plainly: Biochemical kinase assay, ALK I1171N/D1203N. To be noted: apparent inhibitory constant, kinase domain, Morrison equation; read-out: ALK-I1171N-D1203N Ki^app. The method, then:
as §1, §2

For the next test, the target named is Ba/F3 EML4-ALK v1 I1171N (Homo sapiens (Human), UniProt Q9HC35+Q9UM73, I1171N). Put plainly: Ba/F3 cell proliferation assay, EML4-ALK v1 I1171N. It is filed as cell-based. The method, boiled down: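 Ba/F3 cells stably transformed with retroviral EML4-ALK v1 I1171N, selected by IL-3 withdrawal and puromycin, grown IL-3-free. Compounds added as 3-fold dilution series, 72 h incubation; viability by CellTiter-Glo luminescence. IC50 from percent inhibition by four-parameter logistic fit, binned A/B/C.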
Chain of Ba/F3 EML4-ALK v1 I1171N (Q9UM73 other isoform, or with tags, fused parts or gaps I1171N): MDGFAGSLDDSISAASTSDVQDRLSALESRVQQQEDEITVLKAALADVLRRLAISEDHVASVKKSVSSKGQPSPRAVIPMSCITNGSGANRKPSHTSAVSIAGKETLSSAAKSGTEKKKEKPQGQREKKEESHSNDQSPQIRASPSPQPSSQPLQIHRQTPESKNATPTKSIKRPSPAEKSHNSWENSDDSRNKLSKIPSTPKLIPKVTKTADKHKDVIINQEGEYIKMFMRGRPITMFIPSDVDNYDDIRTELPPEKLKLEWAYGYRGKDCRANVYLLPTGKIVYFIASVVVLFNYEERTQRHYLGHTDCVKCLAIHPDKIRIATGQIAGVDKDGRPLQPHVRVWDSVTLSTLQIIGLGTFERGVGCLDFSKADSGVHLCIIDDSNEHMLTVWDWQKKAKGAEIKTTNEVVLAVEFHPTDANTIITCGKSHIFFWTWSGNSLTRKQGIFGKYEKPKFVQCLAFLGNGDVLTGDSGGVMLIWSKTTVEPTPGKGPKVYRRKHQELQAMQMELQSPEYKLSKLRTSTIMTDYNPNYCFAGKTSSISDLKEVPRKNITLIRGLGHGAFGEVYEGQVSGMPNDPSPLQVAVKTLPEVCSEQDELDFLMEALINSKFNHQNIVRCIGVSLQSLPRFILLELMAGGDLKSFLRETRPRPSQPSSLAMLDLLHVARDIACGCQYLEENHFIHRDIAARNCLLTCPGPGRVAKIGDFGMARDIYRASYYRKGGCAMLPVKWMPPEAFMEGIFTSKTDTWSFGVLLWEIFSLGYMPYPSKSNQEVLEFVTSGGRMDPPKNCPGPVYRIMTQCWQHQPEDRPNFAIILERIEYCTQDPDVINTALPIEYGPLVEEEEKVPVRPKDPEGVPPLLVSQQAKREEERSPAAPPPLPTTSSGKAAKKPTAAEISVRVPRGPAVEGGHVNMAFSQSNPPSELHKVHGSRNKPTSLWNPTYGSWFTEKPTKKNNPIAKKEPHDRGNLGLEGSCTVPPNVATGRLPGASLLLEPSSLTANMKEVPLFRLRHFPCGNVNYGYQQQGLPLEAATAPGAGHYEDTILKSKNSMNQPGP

Chain of ALK I1171N/D1203N (Q9UM73 1116-1392 I1171N/D1203N): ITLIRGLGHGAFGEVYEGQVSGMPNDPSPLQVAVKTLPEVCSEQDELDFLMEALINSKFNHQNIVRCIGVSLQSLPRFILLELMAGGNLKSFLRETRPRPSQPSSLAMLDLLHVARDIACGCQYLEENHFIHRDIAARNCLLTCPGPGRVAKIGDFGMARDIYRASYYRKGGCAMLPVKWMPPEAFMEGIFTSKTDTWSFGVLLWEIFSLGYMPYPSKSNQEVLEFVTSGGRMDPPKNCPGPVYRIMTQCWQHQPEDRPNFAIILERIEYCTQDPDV
Chain of Ba/F3 ETV6-TRKB (Q16620 32-822 limits assumed, change not shown): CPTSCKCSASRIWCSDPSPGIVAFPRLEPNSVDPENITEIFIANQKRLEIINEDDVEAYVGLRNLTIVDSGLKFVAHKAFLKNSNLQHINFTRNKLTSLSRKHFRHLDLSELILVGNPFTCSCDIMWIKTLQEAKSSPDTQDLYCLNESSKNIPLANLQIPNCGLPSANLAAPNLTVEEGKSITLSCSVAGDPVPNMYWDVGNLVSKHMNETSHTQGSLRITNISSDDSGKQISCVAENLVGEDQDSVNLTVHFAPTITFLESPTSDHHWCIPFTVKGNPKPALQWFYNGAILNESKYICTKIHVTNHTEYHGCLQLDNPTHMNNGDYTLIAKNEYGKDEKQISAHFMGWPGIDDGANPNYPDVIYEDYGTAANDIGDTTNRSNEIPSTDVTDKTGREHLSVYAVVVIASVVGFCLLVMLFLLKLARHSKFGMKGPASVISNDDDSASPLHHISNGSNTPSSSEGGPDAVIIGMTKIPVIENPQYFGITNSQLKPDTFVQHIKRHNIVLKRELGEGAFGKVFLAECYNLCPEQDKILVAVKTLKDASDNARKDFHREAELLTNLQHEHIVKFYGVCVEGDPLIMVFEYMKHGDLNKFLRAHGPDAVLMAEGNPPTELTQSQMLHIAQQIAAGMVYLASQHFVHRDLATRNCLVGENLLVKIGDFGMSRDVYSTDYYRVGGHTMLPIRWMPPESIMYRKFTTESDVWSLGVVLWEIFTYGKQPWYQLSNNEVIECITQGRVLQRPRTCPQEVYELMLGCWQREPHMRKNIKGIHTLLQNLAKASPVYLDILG
Chain of TRKB-wt (Q16620 538-807): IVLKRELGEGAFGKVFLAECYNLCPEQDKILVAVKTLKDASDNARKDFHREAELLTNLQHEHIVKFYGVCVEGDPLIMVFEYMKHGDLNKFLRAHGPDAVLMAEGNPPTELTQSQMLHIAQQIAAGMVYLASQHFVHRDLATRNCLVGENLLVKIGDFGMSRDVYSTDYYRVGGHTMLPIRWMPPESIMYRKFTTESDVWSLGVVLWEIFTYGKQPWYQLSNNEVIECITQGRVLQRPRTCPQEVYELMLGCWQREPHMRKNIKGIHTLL
Chain of Ba/F3 EML4-ALK v1 I1171N/D1203N (Q9UM73 other isoform, or with tags, fused parts or gaps I1171N/D1203N): as the sequence (Q9UM73 other isoform, or with tags, fused parts or gaps I1171N) above, with D642N counted along it

As for `C[C@H]1Oc2cc(cnc2N)-c2c(c(S(C)(=O)=O)nn2CC2CC2)Cc2cn(C)nc2-c2ccc(F)cc21` [Example 2, (R)-3-(cyclopropylmethyl)-16-fluoro-5-mesyl-10-methyl-19-methyl-20-oxa-3,4,10,11,23-pentaazapentacyclo[19.3.1.0^2,6.0^8,12.0^13,18]pentacosa-1(24),2(6),4,8,11,13,15,17,21(25),22-decaen-22-ylamine], the Ki on TRKB-wt is at least 500 nM; at ALK I1171N/D1203N, 50 to 500 nM. Also, the values for the IC50 (in test [1]; at Ba/F3 ETV6-TRKB) were 50 to 500 nM and above 500 nM, respectively. In addition, the “ETV6-TRKB / EML4-ALK v1 I1171N/D1203N” value in test [1] is on record as “C (bin C for moderate selectivity, ratio≥1 but<10)”.
With `C[C@H]1Oc2cc(cnc2N)-c2c(c(C(=O)N3CCCC3)nn2CC2CC2)Cc2cn(C)nc2-c2ccc(F)cc21` [Example 11, {(R)-22-amino-3-(cyclopropylmethyl)-16-fluoro-10-methyl-19-methyl-20-oxa-3,4,10,11,23-pentaazapentacyclo[19.3.1.0^2,^6.0^8,^12.0^13,^18]pentacosa-1(24),2(6),4,8,11,13,15,17,21(25),22-decaen-5-yl}(1-pyrrolidinyl)methanone], the Ki at TRKB-wt was 50 to 500 nM; on ALK I1171N/D1203N, below 50 nM. Moreover, the values for the IC50 (in test [1]; at Ba/F3 ETV6-TRKB) were 50 to 500 nM and above 500 nM, respectively. In addition, the “ETV6-TRKB / EML4-ALK v1 I1171N/D1203N” value in test [1] is recorded as “B (bin B for high selectivity, ratio≥10-fold but<30)”.
As for `C[C@H]1Oc2cc(cnc2N)-c2c(c(C(=O)N3CCC(F)(F)C3)nn2CC2CC2)Cc2cn(C)nc2-c2ccc(F)cc21` [Example 12, {(R)-22-amino-3-(cyclopropylmethyl)-16-fluoro-10-methyl-19-methyl-20-oxa-3,4,10,11,23-pentaazapentacyclo[19.3.1.0^2,^6.0^8,^12.013,18]pentacosa-1(24),2(6),4,8,11,13,15,17,21(25),22-decaen-5-yl}(3,3-difluoro-1-pyrrolidinyl)methanone], the results for the Ki at TRKB-wt and at ALK I1171N/D1203N were at least 500 nM and below 50 nM, respectively. Further, the IC50 in test [1] is 50 to 500 nM; on Ba/F3 ETV6-TRKB, above 500 nM. Also, in test [1], the “ETV6-TRKB / EML4-ALK v1 I1171N/D1203N” value is reported as “C (bin C for moderate selectivity, ratio≥1 but<10)”.
As to `C[C@H]1Oc2cc(cnc2N)-c2c(c(C(=O)N3CC(F)(F)C3)nn2CC2CC2)Cc2cn(C)nc2-c2ccc(F)cc21` [Example 13, {(R)-22-amino-3-(cyclopropylmethyl)-16-fluoro-10-methyl-19-methyl-20-oxa-3,4,10,11,23-pentaazapentacyclo[19.3.1.0^2,^6.0^8,^12.0^13,^18]pentacosa-1(24),2(6),4,8,11,13,15, 17,21(25),22-decaen-5-yl}(3,3-difluoro-1-azetidinyl)methanone], the figures for the Ki on TRKB-wt and at ALK I1171N/D1203N were 50 to 500 nM and below 50 nM, respectively. Also, the IC50 in test [1] was 50 to 500 nM; at Ba/F3 ETV6-TRKB it was above 500 nM. Besides, the “ETV6-TRKB / EML4-ALK v1 I1171N/D1203N” value in test [1] is recorded as “C (bin C for moderate selectivity, ratio≥1 but<10)”.
`CC(=O)c1nn(CC2CC2)c2c1Cc1cn(C)nc1-c1ccc(F)cc1[C@@H](C)Oc1cc-2cnc1N` [Example 16, 1-[(19R)-22-amino-3-(cyclopropylmethyl)-16-fluoro-10,19-dimethyl-20-oxa-3.4.10,11,23-pentaazapentacyclo[19.3.1.0^2,6.0^8,12.0^13,18]pentacosa-1(24),2(6),4,8,11.13,15,17,21(25),22-decaen-5-yl]ethan-1-one]: the Ki at TRKB-wt was at least 500 nM; on ALK I1171N/D1203N, 50 to 500 nM. Further, the IC50 was 50 to 500 nM in test [1] and above 500 nM at Ba/F3 ETV6-TRKB. For the same molecule, the “ETV6-TRKB / EML4-ALK v1 I1171N/D1203N” value in test [1] is recorded as “C (bin C for moderate selectivity, ratio≥1 but<10)”.
Take `C[C@H]1Oc2cc(cnc2N)-c2c(c([S+](C)[O-])nn2CC2CC2)Cc2cn(C)nc2-c2ccc(F)cc21` (stereo partly drawn) [Example 17, (R)-3-(cyclopropylmethyl)-16-fluoro-10-methyl-19-methyl-5-(methylsulfinyl)-20-oxa-3,4,10,11,23-pentaazapentacyclo[19.3.1.0^2,^6.0^8,^12.0^13,^18]pentacosa-1(24),2(6),4,8,11,13,15,17,21(25),22-decaen-22-ylamine]: the Ki was 50 to 500 nM at TRKB-wt and below 50 nM on ALK I1171N/D1203N. In addition, the IC50 is 50 to 500 nM in test [1] and above 500 nM on Ba/F3 ETV6-TRKB. Also, the “ETV6-TRKB / EML4-ALK v1 I1171N/D1203N” value in test [1] is “C (bin C for moderate selectivity, ratio≥1 but<10)”.
In the case of `Cc1cc2n(n1)-c1ccc(F)cc1[C@@H](C)Oc1cc(cnc1N)-c1c(C#N)nn(C)c1C2=O` [Example 18, (R)-22-amino-16-fluoro-5-methyl-10,19-dimethyl-7-oxo-20-oxa-4,5,11,12,23-pentaazapentacyclo[19.3.1.0^2,^6.0^8,^12.0^13,^18]pentacosa-1(24),2(6),3,8,10,13,15,17,21(25),22-decaene-3-carbonitrile], the Ki on TRKB-wt fell in the range of 50 to 500 nM. For the same molecule, in test [1], the IC50 is 50 to 500 nM; the “ETV6-TRKB / EML4-ALK v1 I1171N/D1203N” value is “C (bin C for moderate selectivity, ratio≥1 but<10)”; the “Selectivity for Ba/F3 EML4-ALK v1 I1171N-D1203N IC50 over Ba/F3 ETV6-TRKB IC50” value (“Selectivity” for short) is given as “CC (bin CC for the selectivity with the ratio≥5 but<10)”. In addition, at Ba/F3 ETV6-TRKB, the IC50 was above 500 nM. The Ki at ALK I1171N/D1203N is below 50 nM.
In the case of `Cc1cc2n(n1)-c1ccc(F)cc1[C@@H](C)Oc1cc(cnc1N)-c1c(nn(C)c1C#N)C2=O` [Example 19, (R)-22-amino-16-fluoro-4-methyl-10,19-dimethyl-7-oxo-20-oxa-4,5,11,12,23-pentaazapentacyclo[19.3.1.0^2,^6.0^8,^12.0^13,^18]pentacosa-1(24),2,5,8, 10,13,15,17,21(25),22-decaene-3-carbonitrile], the Ki at TRKB-wt and at ALK I1171N/D1203N was below 50 nM each time. Further, the values for the IC50 (in test [1]; at Ba/F3 ETV6-TRKB) were 0.1 to 50 nM and 50 to 500 nM, respectively. In test [1], the “ETV6-TRKB / EML4-ALK v1 I1171N/D1203N” value is “B (bin B for high selectivity, ratio≥10-fold but<30)”.
Turning to `CCn1nc(C(=O)N(C)C)c2c1-c1cnc(N)c(c1)O[C@H](C)c1cc(F)ccc1-c1ncccc1C2=O` [Example 47, N,N-dimethyl-(R)-23-amino-3-ethyl-17-fluoro-20-methyl-7-oxo-21-oxa-3,4,12,24-tetraazapentacyclo[20.3.1.0^2,^6.0^8,^13.0^14,^19]hexacosa-1(25),2(6),4,8(13),9,11,14,16,18,22(26),23-undecaene-5-carboxamide], in test [1], the IC50 fell in the range of 50 to 500 nM and the “Selectivity” value is “BB (bin BB for the selectivity with the ratio≥10-fold but<30)”. Moreover, the IC50 at Ba/F3 ETV6-TRKB was above 500 nM. For the same molecule, at ALK I1171N/D1203N, the Ki lay in the range of 50 to 500 nM.
Take `CCn1ncc2c1-c1cnc(N)c(c1)O[C@H](C)c1cc(F)ccc1-c1ncccc1C2=O` [Example 76, (R)-23-amino-3-ethyl-17-fluoro-20-methyl-21-oxa-3,4,12,24-tetraazapentacyclo[20.3.1.0^2,^6.0^8,^13.0^14,^19]hexacosa-1(25),2(6),4,8(13),9,11,14,16,18,22(26),23-undecaen-7-one]: in test [1], the IC50 was in the range of 50 to 500 nM; the “ETV6-TRKB / EML4-ALK v1 I1171N/D1203N” value is reported as “C (bin C for moderate selectivity, ratio≥1 but<10)”; the “Selectivity” value is “DD (bin DD for the selectivity with the ratio≥1 but<5)”. Moreover, the IC50 at Ba/F3 EML4-ALK v1 I1171N (Ba/F3 stable cells, 72 hours, CellTiter-Glo) was above 500 nM. Also, the “ETV6-TRKB / EML4-ALK v1 I1171N” value at Ba/F3 EML4-ALK v1 I1171N (TRKB selectivity, ratio of Ba/F3 IC50 values) is on record as “C (bin C for moderate selectivity, ratio≥1 but<10)”. For the same molecule, the IC50 at Ba/F3 ETV6-TRKB was above 500 nM. Also, the Ki at ALK I1171N/D1203N is below 50 nM.

By IC50 is commonly meant the concentration needed to halve the response being measured.
